pIC50: −log10 of the molar value.

The assay deals with benzodiazepine receptors. In words: Affinity for benzodiazepine receptors (3H Diazepam displacement, rat cortex membranes). The note with it: rat brain cortex membranes, 3H Diazepam 10^-9 moles, 0° C., 30 minutes; read-out: CI50, concentration inhibiting by 50% the specific bonding of 3H diazepam. It is filed as binding. The protocol: The test was inspired by Mohler et al [Science, No. 198 (1977), p. 849-851] in which the cortex was removed from the brains of male rats weighing an average of 150 g and homogenized at a ratio of 1 part by weight per 20 parts by volume of 0.32 M sucrose. The homogenized mixture was centrifuged at 1000 g for 10 minutes at 0° C. and the surnageant was centrifuged at 30,000 g for 20 minutes at 4° C. The culot was suspended in 20 volumes of Tris HCl 50 mM buffer with a pH of 7.4 and the suspension was centrifuged at 30,000 g for 20 minutes at 4° C. The resulting culot was suspended in 50 ml of Krebs Tris HCl buffered at a pH of 7.4 and 2 ml of the suspension was incubated at 0° C. for 30 minutes in the presence of ^3 H Diazepam at a concentration of 10^-9 moles with increasing concentration of the test product to determine the non-specificfixation with non-radioactive Diazepam at a concentration of 10^-6 moles.
The incubated suspensions were filtered through a Whatman GF/C filter and the filters were washed twice with 5 ml of Krebs Tris HCl buffer at a pH of 7.4 not 0° C. The radioactivity of the filters was measured by liquid scintillation and the affinity of the test product for benzodiazepine receptors was expressed in CI50 or the concentration inhibiting by 50% the specific bonding of ^3 H diapezam.
As for `CCCCCCNC(=O)c1cnc2ccccc2c1O` [Example 10, 4-hydroxy-N-n-hexyl-3-quinoline-carboxamide], the pIC50 is 8.17. For `COc1ccc(NC(=O)c2cnc3ccccc3c2O)cc1` [Example 6, 4-hydroxy-N-(4-methoxyphenyl)-3-quinoline-carboxamide] the value was 8.12; for `COc1ccccc1NC(=O)c1cnc2ccccc2c1O` [Example 13, 4-hydroxy-N-(2-methoxy-phenyl)-3-quinoline-carboxamide], 7.27. To `CCCCNC(=O)c1cnc2ccccc2c1O` [Example 9, 4-hydroxy-N-butyl-3-quinoline-carboxamide] belongs 8.43; to `CCOc1ccc(NC(=O)c2cnc3ccccc3c2O)cc1` [Example 1, 4-hydroxy-N-(4-ethoxyphenyl)-3-quinoline-carboxamide], 7.40; to `CCNC(=O)c1cnc2ccccc2c1O` [Example 8, 4-hydroxy-N-ethyl-3-quinoline-carboxamide], 7.96. As to `CCCNC(=O)c1cnc2ccccc2c1O` [Example 24, 4-hydroxy-N-propyl-3-quinoline-carboxamide], the pIC50 was 8.92. Turning to `COc1cccc(NC(=O)c2cnc3ccccc3c2O)c1` [Example 16, 4-hydroxy-N-(3-methoxy-phenyl)-3-quinoline-carboxamide], the pIC50 was 8.18. Turning to `O=C(Nc1ccc(O)cc1)c1cnc2ccccc2c1O` [Example 7, 4-hydroxy-N-(4-hydroxyphenyl)-3-quinoline-carboxamide], the pIC50 is 8.36.

Take `COc1ccc(NC(=O)c2c(C)nc3ccccc3c2O)cc1` [Example 23, 4-hydroxy-N-(4-methoxyphenyl)-2-methyl-3-quinoline-carboxamide]: the pIC50 was 7.64.
